# The source made the active and inactive calls. The calls are words filed in the database; no cut-off is given here.
# Columns and labels:
# Staphylococcus aureus [1] = assay: Inhibition of RNA synthesis in Staphylococcus aureus ATCC 29213 at MIC preincubated for 30 mins followed by [3H]-uridine and measured after 30 mins by [3H]-uridine incorporation based beta scintillation counter analysis; format: functional; conditions: time 60 min; 1 h
# Staphylococcus aureus [2] = assay: Inhibition of DNA synthesis in Staphylococcus aureus ATCC 29213 at 1 times MIC preincubated for 30 mins followed by [3H]-thymidine and measured after 30 mins by [3H]-thymidine incorporation based beta scintillation counter analysis; format: functional; conditions: time 60 min; 1 h
# Staphylococcus aureus [3] = assay: Inhibition of protein synthesis in Staphylococcus aureus ATCC 29213 at 0.5 times MIC preincubated for 30 mins followed by [3H]-leucine and measured after 40 mins by [3H]-leucine incorporation based beta scintillation counter analysis; format: functional; conditions: time 70.0 min
# Staphylococcus aureus [4] = assay: Inhibition of lipid synthesis in Staphylococcus aureus ATCC 29213 at 0.25 times MIC preincubated for 30 mins followed by [3H]-glycerol and measured after 50 mins by [3H]-glycerol incorporation based beta scintillation counter analysis; format: functional; conditions: time 80 min; 1.333 h
# Staphylococcus aureus [5] = assay: Inhibition of RNA synthesis in Staphylococcus aureus ATCC 29213 at 0.5 times MIC preincubated for 30 mins followed by [3H]-uridine and measured after 30 mins by [3H]-uridine incorporation based beta scintillation counter analysis; format: functional; conditions: time 60 min; 1 h
# Enterococcus faecalis [6] = assay: Inhibition of biofilm formation in Enterococcus faecalis ATCC 29212 at 6.25 ug/ml incubated for 24 hrs by Calgary biofilm device assay; format: functional; conditions: dose 6.25 µg/ml
# Staphylococcus aureus [7] = assay: Antibacterial activity against Staphylococcus aureus clinical isolate 1088105 assessed as inhibition of bacterial growth by CLSI protocol based broth microdilution method; format: functional
# Enterococcus faecium [8] = assay: Antibacterial activity against Enterococcus faecium clinical isolate 1088168 assessed as inhibition of bacterial growth by CLSI protocol based broth microdilution method; format: functional
# Staphylococcus aureus [9] = assay: Antibacterial activity against Staphylococcus aureus ATCC 29213 assessed as inhibition of bacterial growth by CLSI protocol based broth microdilution method; format: functional
# Enterococcus faecalis [10] = assay: Anti-biofilm activity against Enterococcus faecalis ATCC 29212 assessed as eradication of biofilm formation incubated for 24 hrs by Calgary biofilm device assay; format: functional
# Enterococcus faecalis [11] = assay: Anti-biofilm activity against Enterococcus faecalis ATCC 29212 assessed as biofilm eradication at 3.125 to 12.5 ug/ml incubated for 24 hrs by Calgary biofilm device assay; format: functional, organism-based; conditions: dose 3.125-12.5 µg/ml
# Enterococcus faecalis [12] = assay: Antibacterial activity against Enterococcus faecalis clinical isolate 1091563 assessed as inhibition of bacterial growth by CLSI protocol based broth microdilution method; format: functional
# Staphylococcus aureus [13] = assay: Antibacterial activity against Staphylococcus aureus clinical isolate 1088626 assessed as inhibition of bacterial growth by CLSI protocol based broth microdilution method; format: functional
# Staphylococcus aureus [14] = assay: Inhibition of lipid synthesis in Staphylococcus aureus ATCC 29213 at MIC preincubated for 30 mins followed by [3H]-glycerol and measured after 50 mins by [3H]-glycerol incorporation based beta scintillation counter analysis; format: functional; conditions: time 80 min; 1.333 h
# Staphylococcus aureus [15] = assay: Inhibition of RNA synthesis in Staphylococcus aureus ATCC 29213 at 0.25 times MIC preincubated for 30 mins followed by [3H]-uridine and measured after 30 mins by [3H]-uridine incorporation based beta scintillation counter analysis; format: functional; conditions: time 60 min; 1 h
# Staphylococcus aureus [16] = assay: Antibacterial activity against Staphylococcus aureus clinical isolate 1088064 assessed as inhibition of bacterial growth by CLSI protocol based broth microdilution method; format: functional
# Staphylococcus aureus [17] = assay: Inhibition of protein synthesis in Staphylococcus aureus ATCC 29213 at MIC preincubated for 30 mins followed by [3H]-leucine and measured after 40 mins by [3H]-leucine incorporation based beta scintillation counter analysis; format: functional; conditions: time 70.0 min
# Staphylococcus aureus [18] = assay: Antibacterial activity against Staphylococcus aureus clinical isolate 1088060 assessed as inhibition of bacterial growth by CLSI protocol based broth microdilution method; format: functional
# Staphylococcus aureus [19] = assay: Antibacterial activity against antibiotic resistant Staphylococcus aureus ATCC 33591 assessed as inhibition of bacterial growth by CLSI protocol based broth microdilution method; format: functional
# Enterococcus faecalis [20] = assay: Antibacterial activity against Enterococcus faecalis clinical isolate 1091720 assessed as inhibition of bacterial growth by CLSI protocol based broth microdilution method; format: functional
# Enterococcus faecium [21] = assay: Antibacterial activity against Enterococcus faecium clinical isolate 1091282 assessed as inhibition of bacterial growth by CLSI protocol based broth microdilution method; format: functional
# Staphylococcus aureus [22] = assay: Antibacterial activity against Staphylococcus aureus clinical isolate 1088888 assessed as inhibition of bacterial growth by CLSI protocol based broth microdilution method; format: functional
# Staphylococcus aureus [23] = assay: Bactericidal activity against Staphylococcus aureus ATCC 700699 assessed as bacteria elimination at 4 times MIC and measured after 6 hrs by time-kill assay; format: functional
# Staphylococcus aureus [24] = assay: Anti-biofilm activity against Staphylococcus aureus ATCC 25923 assessed as eradication of biofilm formation incubated for 24 hrs by Calgary biofilm device assay; format: functional; conditions: Staphylococcus aureus, ATCC 25923
# Staphylococcus aureus [25] = assay: Bactericidal activity against Staphylococcus aureus ATCC 700699 persisters assessed as log reduction in colony forming unit at 32 times MIC measured for 4 hrs by time kill assay; format: functional
# Staphylococcus aureus [26] = assay: Inhibition of DNA synthesis in Staphylococcus aureus ATCC 29213 at 0.5 times MIC preincubated for 30 mins followed by [3H]-thymidine and measured after 30 mins by [3H]-thymidine incorporation based beta scintillation counter analysis; format: functional; conditions: time 60 min; 1 h
# Enterococcus faecalis [27] = assay: Antibacterial activity against Enterococcus faecalis clinical isolate 1100440 assessed as inhibition of bacterial growth by CLSI protocol based broth microdilution method; format: functional
# Staphylococcus aureus [28] = assay: Antibacterial activity against Staphylococcus aureus clinical isolate 1089106 assessed as inhibition of bacterial growth by CLSI protocol based broth microdilution method; format: functional
# Enterococcus faecium [29] = assay: Antibacterial activity against Enterococcus faecium clinical isolate 1088228 assessed as inhibition of bacterial growth by CLSI protocol based broth microdilution method; format: functional
# Enterococcus faecium [30] = assay: Antibacterial activity against Enterococcus faecium clinical isolate 1089544 assessed as inhibition of bacterial growth by CLSI protocol based broth microdilution method; format: functional
# Staphylococcus aureus [31] = assay: Antibacterial activity against antibiotic resistant Staphylococcus aureus ATCC 700699 assessed as inhibition of bacterial growth by CLSI protocol based broth microdilution method; format: functional
# Staphylococcus aureus [32] = assay: Inhibition of lipid synthesis in Staphylococcus aureus ATCC 29213 at 0.5 times MIC preincubated for 30 mins followed by [3H]-glycerol and measured after 50 mins by [3H]-glycerol incorporation based beta scintillation counter analysis; format: functional; conditions: time 80 min; 1.333 h
# Enterococcus faecalis [33] = assay: Anti-biofilm activity against Enterococcus faecalis ATCC 29212 assessed as minimum bactericidal concentration incubated for 24 hrs by Calgary biofilm device assay; conditions: ATCC 29212, 24 h
# Staphylococcus aureus [34] = assay: Inhibition of protein synthesis in Staphylococcus aureus ATCC 29213 at 0.25 times MIC preincubated for 30 mins followed by [3H]-leucine and measured after 40 mins by [3H]-leucine incorporation based beta scintillation counter analysis; format: functional; conditions: time 70.0 min
# Enterococcus faecalis [35] = assay: Antibacterial activity against Enterococcus faecalis clinical isolate 1094112 assessed as inhibition of bacterial growth by CLSI protocol based broth microdilution method; format: functional
# Enterococcus faecalis [36] = assay: Antibacterial activity against antibiotic susceptible Enterococcus faecalis ATCC 29212 assessed as inhibition of bacterial growth by CLSI protocol based broth microdilution method; format: functional
structure (smiles),measurement,setting,value
O=C(O)c1ccc(-c2nn(-c3ccc(C(F)(F)F)cc3)cc2CNc2ccc(Br)c(C(F)(F)F)c2)cc1,inhibition (INH),Staphylococcus aureus [1],75.5%
same,inhibition (INH),Staphylococcus aureus [2],76%
same,inhibition,Staphylococcus aureus [3],53.3%
same,inhibition (INH),Staphylococcus aureus [4],55.4%
same,inhibition (INH),Staphylococcus aureus [5],38.1%
same,inhibition,Enterococcus faecalis [6],Active
same,MIC,Staphylococcus aureus [7],4 µg/mL
same,MIC,Enterococcus faecium [8],4 µg/mL
same,MIC,Staphylococcus aureus [9],1 µg/mL
same,MBEC,Enterococcus faecalis [10],6.25 µg/mL
same,Activity,Enterococcus faecalis [11],Active
same,MIC,Enterococcus faecalis [12],8 µg/mL
same,MIC,Staphylococcus aureus [13],4 µg/mL
same,inhibition (INH),Staphylococcus aureus [14],88.3%
same,inhibition (INH),Staphylococcus aureus [15],14.1%
same,MIC,Staphylococcus aureus [16],4 µg/mL
same,inhibition,Staphylococcus aureus [17],86.1%
same,MIC,Staphylococcus aureus [18],4 µg/mL
same,MIC,Staphylococcus aureus [19],1.56 µg/mL
same,MIC,Enterococcus faecalis [20],8 µg/mL
same,MIC,Enterococcus faecium [21],8 µg/mL
same,MIC,Staphylococcus aureus [22],8 µg/mL
same,Activity,Staphylococcus aureus [23],>99.9%
same,MBEC,Staphylococcus aureus [24],6.25 µg/mL
same,log(activity),Staphylococcus aureus [25],5
same,inhibition (INH),Staphylococcus aureus [26],43.6%
same,MIC,Enterococcus faecalis [27],8 µg/mL
same,MIC,Staphylococcus aureus [28],4 µg/mL
same,MIC,Enterococcus faecium [29],8 µg/mL
same,MIC,Enterococcus faecium [30],8 µg/mL
same,MIC,Staphylococcus aureus [31],0.78 µg/mL
same,inhibition (INH),Staphylococcus aureus [32],57%
same,MBC,Enterococcus faecalis [33],6.25 µg/mL
same,inhibition,Staphylococcus aureus [34],55.4%
same,MIC,Enterococcus faecalis [35],8 µg/mL
same,MIC,Enterococcus faecalis [36],3.12 µg/mL
